From patent US8063220B2, “Sulfonyl-quinoline derivatives” (Richter Gedeon Nyrt., priority 2007, dated 2011) come the findings set out here.

For one test, the target named is T1, rat mGluR1 (Rattus norvegicus, UniProt P23385).
T1 construct: rat cerebellar membrane preparation was used; from tissue; host or cells: rat cerebellum (membrane preparation)
Description: MGluR1 receptor binding test ([3H]R214127 displacement, rat cerebellar membrane preparation). Conditions: rat mGluR1, [3H]R214127 3 nM; read-out: mGlu1 Ki. The protocol: MGluR1 receptor binding tests were performed according to modified method of Lavreysen et al. (Mol. Pharm., 2003, 63, 1082). Based on the high homology between the human and rat mGluR1 receptors, rat cerebellar membrane preparation was used to determine the binding characteristics of reference compounds and novel compounds to the rat mGluR1. [3H]R214127 (3 nM) was used as radioligand and the nonspecific binding was determined in the presence of 1 μM of R214127.
IC-50 values were determined from displacement curves by nonlinear regression analysis and were converted to Ki values using the equation method of Cheng and Prusoff (Biochem. Pharmacol., 1973, 22, 3099).

A further test deals with T2, rat mGluR5 (Rattus norvegicus, UniProt P31424).
T2 construct: Rat cerebro-cortical membrane preparation was used; from tissue; host or cells: rat cerebral cortex (membrane preparation)
T2 sequence (P31424 21-1203): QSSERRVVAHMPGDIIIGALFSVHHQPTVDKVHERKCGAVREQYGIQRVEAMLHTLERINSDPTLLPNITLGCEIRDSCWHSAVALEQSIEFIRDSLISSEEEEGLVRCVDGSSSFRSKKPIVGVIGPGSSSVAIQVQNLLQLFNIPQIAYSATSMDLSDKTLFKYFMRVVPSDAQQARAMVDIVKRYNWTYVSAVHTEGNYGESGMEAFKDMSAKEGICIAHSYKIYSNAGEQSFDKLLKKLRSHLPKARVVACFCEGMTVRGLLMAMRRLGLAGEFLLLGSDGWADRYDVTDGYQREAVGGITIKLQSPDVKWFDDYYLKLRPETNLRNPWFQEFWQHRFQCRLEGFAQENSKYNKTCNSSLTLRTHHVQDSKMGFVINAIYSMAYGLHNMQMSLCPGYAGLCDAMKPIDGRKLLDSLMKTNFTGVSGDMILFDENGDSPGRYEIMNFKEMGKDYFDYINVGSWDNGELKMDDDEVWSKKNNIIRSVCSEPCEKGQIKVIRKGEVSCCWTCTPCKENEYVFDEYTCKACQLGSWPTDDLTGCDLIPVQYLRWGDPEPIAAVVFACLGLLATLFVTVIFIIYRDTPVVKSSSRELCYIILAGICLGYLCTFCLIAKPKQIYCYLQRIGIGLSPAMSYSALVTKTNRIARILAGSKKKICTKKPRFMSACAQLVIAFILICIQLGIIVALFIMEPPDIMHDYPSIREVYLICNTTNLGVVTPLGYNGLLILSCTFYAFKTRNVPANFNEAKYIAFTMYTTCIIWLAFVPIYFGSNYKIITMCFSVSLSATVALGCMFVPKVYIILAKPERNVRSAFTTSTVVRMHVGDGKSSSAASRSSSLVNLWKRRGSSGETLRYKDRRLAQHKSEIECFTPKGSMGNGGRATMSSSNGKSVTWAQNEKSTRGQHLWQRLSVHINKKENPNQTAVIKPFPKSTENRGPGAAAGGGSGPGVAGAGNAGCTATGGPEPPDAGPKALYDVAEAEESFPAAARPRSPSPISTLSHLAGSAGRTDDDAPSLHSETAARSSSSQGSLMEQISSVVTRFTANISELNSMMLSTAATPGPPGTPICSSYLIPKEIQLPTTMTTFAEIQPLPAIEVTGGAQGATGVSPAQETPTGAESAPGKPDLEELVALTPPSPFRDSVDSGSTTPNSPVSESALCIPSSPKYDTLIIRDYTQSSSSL
Description: MGluR5 receptor binding test ([3H]-M-MPEP displacement, rat cerebro-cortical membrane preparation). Particulars: rat mGluR5, [3H]-M-MPEP 2 nM; read-out: mGlu5 Ki. As for the experimental part: Rat cerebro-cortical membrane preparation was used to determine the binding characteristics of reference compounds and novel compounds to the rat mGluR5. The A18 cell line expressing hmGluR5a (purchased from Euroscreen) was used to determine binding characteristics of the chemical compounds to the human mGluR5a receptor. [3H]-M-MPEP (2 nM) was used as radioligand. The nonspecific binding was determined in the presence of 10 μM M-MPEP.

SMILES strings stand for the structures.

T1 sequence (P23385 19-1199): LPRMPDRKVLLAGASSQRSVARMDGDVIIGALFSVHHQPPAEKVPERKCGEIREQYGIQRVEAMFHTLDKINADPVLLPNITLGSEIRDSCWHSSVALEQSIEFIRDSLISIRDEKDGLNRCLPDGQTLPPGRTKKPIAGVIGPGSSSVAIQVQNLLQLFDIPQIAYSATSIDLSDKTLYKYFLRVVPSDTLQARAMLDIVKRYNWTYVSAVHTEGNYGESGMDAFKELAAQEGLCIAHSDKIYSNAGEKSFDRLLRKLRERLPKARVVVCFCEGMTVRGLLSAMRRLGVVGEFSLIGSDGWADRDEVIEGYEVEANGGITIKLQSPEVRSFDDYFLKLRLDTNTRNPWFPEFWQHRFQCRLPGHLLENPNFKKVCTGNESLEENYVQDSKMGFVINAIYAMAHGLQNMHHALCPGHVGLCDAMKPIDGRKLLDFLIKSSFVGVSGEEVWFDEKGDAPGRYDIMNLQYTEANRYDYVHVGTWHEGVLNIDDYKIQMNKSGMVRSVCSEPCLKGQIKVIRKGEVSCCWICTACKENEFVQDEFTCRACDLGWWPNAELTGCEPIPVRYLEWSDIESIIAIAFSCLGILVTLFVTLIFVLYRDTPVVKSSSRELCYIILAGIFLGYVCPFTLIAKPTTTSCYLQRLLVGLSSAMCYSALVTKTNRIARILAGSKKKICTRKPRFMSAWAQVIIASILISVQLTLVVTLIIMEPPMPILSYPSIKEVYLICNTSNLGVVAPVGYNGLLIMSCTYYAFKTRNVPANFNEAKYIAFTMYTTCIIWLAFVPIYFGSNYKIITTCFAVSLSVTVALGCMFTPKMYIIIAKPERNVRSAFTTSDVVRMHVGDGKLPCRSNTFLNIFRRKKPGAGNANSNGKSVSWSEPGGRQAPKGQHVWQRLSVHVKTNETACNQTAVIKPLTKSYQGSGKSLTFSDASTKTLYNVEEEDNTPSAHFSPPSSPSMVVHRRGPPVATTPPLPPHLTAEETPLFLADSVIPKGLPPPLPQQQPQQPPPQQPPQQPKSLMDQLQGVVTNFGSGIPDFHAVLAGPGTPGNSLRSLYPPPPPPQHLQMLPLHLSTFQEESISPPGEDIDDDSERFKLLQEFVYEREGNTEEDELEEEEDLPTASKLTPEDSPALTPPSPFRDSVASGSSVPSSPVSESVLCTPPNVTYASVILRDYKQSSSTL

Broadly, the Ki is a measure of affinity in units of concentration, obtained from inhibition or displacement. For `COc1cccc(-c2c(S(=O)(=O)c3cccc(C#N)c3)cnc3cc(F)ccc23)c1` [Compound 93], the Ki was above 500 nM on rat mGluR1 and below 200 nM on rat mGluR5.

Turning to `Cc1ccc(S(=O)(=O)c2cnc3cc(F)ccc3c2-c2cccc(F)c2)cc1Cl` [Compound 94], the Ki on rat mGluR1 was above 500 nM; on rat mGluR5, below 200 nM.

In the case of `COc1cccc(S(=O)(=O)c2cnc3cc(F)ccc3c2-c2cccc(F)c2)c1` [Compound 95], the Ki at rat mGluR1 is above 500 nM; on rat mGluR5, 200 to 500 nM.

For `COc1cccc(-c2c(S(=O)(=O)c3ccc(OC)c(Cl)c3)cnc3cc(F)ccc23)c1` [Compound 96], the Ki was above 500 nM on rat mGluR1 and 200 to 500 nM on rat mGluR5.

In the case of `O=S(=O)(c1ccc(F)c(F)c1)c1cnc2cc(F)ccc2c1-c1cccc(Cl)c1` [Compound 97], the Ki on rat mGluR1 and on rat mGluR5 was 200 to 500 nM each time.

Turning to `O=S(=O)(c1ccc(F)c(F)c1)c1cnc2cc(F)ccc2c1-c1cccc(F)c1` [Compound 98], the results for the Ki at rat mGluR1 and at rat mGluR5 were 200 to 500 nM and below 200 nM, respectively.

On to `COc1ccc(-c2c(S(=O)(=O)c3ccc(F)c(F)c3)cnc3cc(F)ccc23)cc1` [Compound 99], for which the Ki at rat mGluR1 was above 500 nM; on rat mGluR5, below 200 nM.

In the case of `COc1cccc(-c2c(S(=O)(=O)c3ccc(F)c(F)c3)cnc3cc(F)ccc23)c1` [Compound 100], the figures for the Ki on rat mGluR1 and on rat mGluR5 were above 500 nM and below 200 nM, respectively.

Turning to `O=S(=O)(c1ccc(F)c(F)c1)c1cnc2cc(F)ccc2c1-c1ccc(F)cc1` [Compound 101, 3-(3,4-difluoro-benzenesulfonyl)-7-fluoro-4-(4-fluoro-phenyl)-quinoline], the figures for the Ki on rat mGluR1 and at rat mGluR5 were 200 to 500 nM and below 200 nM, respectively.

Regarding `O=S(=O)(c1ccc(F)c(Cl)c1)c1cnc2cc(F)ccc2c1-c1ccc(Cl)cc1` [Compound 102], the Ki at rat mGluR1 was 200 to 500 nM; on rat mGluR5, below 200 nM.

As for `O=S(=O)(c1ccc(F)c(Cl)c1)c1cnc2cc(F)ccc2c1-c1cccc(F)c1` [Compound 103], the Ki at rat mGluR1 and at rat mGluR5 was below 200 nM throughout.

As to `COc1ccc(-c2c(S(=O)(=O)c3ccc(F)c(Cl)c3)cnc3cc(F)ccc23)cc1` [Compound 104], the inhibition constant (Ki) on rat mGluR1 is 200 to 500 nM; at rat mGluR5, below 200 nM.

As for `O=S(=O)(c1ccc(F)c(Cl)c1)c1cnc2cc(F)ccc2c1-c1ccc(F)cc1` [Compound 105], the inhibition constant (Ki) on rat mGluR1 and at rat mGluR5 was below 200 nM throughout.

`O=S(=O)(c1cc(Cl)cc(Cl)c1)c1cnc2c(F)cccc2c1-c1cccc(F)c1` [Compound 106]: the values for the inhibition constant Ki at rat mGluR1 and on rat mGluR5 were above 500 nM and below 200 nM, respectively.

For `COc1ccc(-c2c(S(=O)(=O)c3cc(Cl)cc(Cl)c3)cnc3c(F)cccc23)cc1` [Compound 107], the values for the Ki on rat mGluR1 and on rat mGluR5 were above 500 nM and below 200 nM, respectively.

On to `COc1cccc(-c2c(S(=O)(=O)c3cc(Cl)cc(Cl)c3)cnc3c(F)cccc23)c1` [Compound 108], for which the figures for the Ki at rat mGluR1 and on rat mGluR5 were above 500 nM and below 200 nM, respectively.

With `Cc1ccc(S(=O)(=O)c2cnc3c(F)cccc3c2-c2cccc(Cl)c2)cc1F` [Compound 109], the inhibitory constant (Ki) is above 500 nM at rat mGluR1 and below 200 nM on rat mGluR5.

On to `Cc1ccc(S(=O)(=O)c2cnc3c(F)cccc3c2-c2ccc(Cl)cc2)cc1F` [Compound 110], for which the Ki at rat mGluR1 is above 500 nM; at rat mGluR5, below 200 nM.

On to `Cc1ccc(S(=O)(=O)c2cnc3c(F)cccc3c2-c2cccc(F)c2)cc1F` [Compound 111], for which the Ki on rat mGluR1 is above 500 nM; at rat mGluR5, below 200 nM.

Take `COc1ccc(-c2c(S(=O)(=O)c3ccc(C)c(F)c3)cnc3c(F)cccc23)cc1` [Compound 112]: the Ki on rat mGluR1 was above 500 nM; on rat mGluR5 it was below 200 nM.

Turning to `COc1cccc(-c2c(S(=O)(=O)c3ccc(C)c(F)c3)cnc3c(F)cccc23)c1` [Compound 113], the Ki at rat mGluR1 is above 500 nM; on rat mGluR5 it was below 200 nM.

As to `Cc1ccc(S(=O)(=O)c2cnc3c(F)cccc3c2-c2ccc(F)cc2)cc1F` [Compound 114], the Ki at rat mGluR1 was above 500 nM; on rat mGluR5, below 200 nM.

As for `O=S(=O)(c1cc(F)cc(F)c1)c1cnc2c(F)cccc2c1-c1cccc(Cl)c1` [Compound 115], the Ki at rat mGluR1 was 200 to 500 nM; on rat mGluR5, below 200 nM.

Regarding `O=S(=O)(c1cc(F)cc(F)c1)c1cnc2c(F)cccc2c1-c1ccc(Cl)cc1` [Compound 116], the results for the Ki on rat mGluR1 and at rat mGluR5 were 200 to 500 nM and below 200 nM, respectively.

Regarding `COc1ccc(-c2c(S(=O)(=O)c3cc(F)cc(F)c3)cnc3c(F)cccc23)cc1` [Compound 117], the Ki is above 500 nM on rat mGluR1 and below 200 nM on rat mGluR5.

Regarding `COc1cccc(-c2c(S(=O)(=O)c3cc(F)cc(F)c3)cnc3c(F)cccc23)c1` [Compound 118], the figures for the inhibition constant (Ki) on rat mGluR1 and at rat mGluR5 were above 500 nM and below 200 nM, respectively.

On to `O=S(=O)(c1cc(F)cc(F)c1)c1cnc2c(F)cccc2c1-c1ccc(F)cc1` [Compound 119], for which the Ki on rat mGluR1 and on rat mGluR5 was below 200 nM each time.

As to `O=S(=O)(c1ccc(F)c(F)c1)c1cnc2c(F)cccc2c1-c1ccc(Cl)cc1` [Compound 120], the Ki is 200 to 500 nM on rat mGluR1 and below 200 nM on rat mGluR5.

Consider `O=S(=O)(c1ccc(F)c(F)c1)c1cnc2c(F)cccc2c1-c1cccc(F)c1` [Compound 121], for which the Ki at rat mGluR1 and at rat mGluR5 was below 200 nM throughout.

For the compound `COc1ccc(-c2c(S(=O)(=O)c3ccc(F)c(F)c3)cnc3c(F)cccc23)cc1` [Compound 122], the Ki was above 500 nM at rat mGluR1 and below 200 nM at rat mGluR5.

Turning to `O=S(=O)(c1ccc(F)c(F)c1)c1cnc2c(F)cccc2c1-c1ccc(F)cc1` [Compound 123], the Ki at rat mGluR1 and at rat mGluR5 was below 200 nM in each case.

As for `O=S(=O)(c1cc(Cl)cc(Cl)c1)c1cnc2ccc(F)cc2c1-c1cccc(F)c1` [Compound 124], the values for the Ki at rat mGluR1 and at rat mGluR5 were 200 to 500 nM and below 200 nM, respectively.

As to `COc1ccc(-c2c(S(=O)(=O)c3cc(Cl)cc(Cl)c3)cnc3ccc(F)cc23)cc1` [Compound 125], the figures for the Ki at rat mGluR1 and at rat mGluR5 were above 500 nM and below 200 nM, respectively.

Regarding `COc1cccc(-c2c(S(=O)(=O)c3cc(Cl)cc(Cl)c3)cnc3ccc(F)cc23)c1` [Compound 126], the Ki on rat mGluR1 is above 500 nM; at rat mGluR5, below 200 nM.

Turning to `Cc1ccc(S(=O)(=O)c2cnc3ccc(F)cc3c2-c2cccc(Cl)c2)cc1F` [Compound 127], the inhibition constant Ki on rat mGluR1 is above 500 nM; on rat mGluR5, below 200 nM.

Take `Cc1ccc(S(=O)(=O)c2cnc3ccc(F)cc3c2-c2cccc(F)c2)cc1F` [Compound 128]: the results for the Ki at rat mGluR1 and at rat mGluR5 were above 500 nM and below 200 nM, respectively.

As for `COc1ccc(-c2c(S(=O)(=O)c3ccc(C)c(F)c3)cnc3ccc(F)cc23)cc1` [Compound 129], the Ki was above 500 nM on rat mGluR1 and below 200 nM at rat mGluR5.

On to `COc1cccc(-c2c(S(=O)(=O)c3ccc(C)c(F)c3)cnc3ccc(F)cc23)c1` [Compound 130], for which the Ki was above 500 nM at rat mGluR1 and below 200 nM on rat mGluR5.

`Cc1ccc(S(=O)(=O)c2cnc3ccc(F)cc3c2-c2ccc(F)cc2)cc1F` [Compound 131]: the Ki at rat mGluR1 was above 500 nM; on rat mGluR5, below 200 nM.

Turning to `O=S(=O)(c1cc(F)cc(F)c1)c1cnc2ccc(F)cc2c1-c1ccc(Cl)cc1` [Compound 132], the results for the Ki at rat mGluR1 and on rat mGluR5 were above 500 nM and 200 to 500 nM, respectively.

Regarding `COc1ccc(-c2c(S(=O)(=O)c3cc(F)cc(F)c3)cnc3ccc(F)cc23)cc1` [Compound 133], the results for the inhibition constant (Ki) on rat mGluR1 and on rat mGluR5 were above 500 nM and 200 to 500 nM, respectively.

On to `COc1cccc(-c2c(S(=O)(=O)c3cc(F)cc(F)c3)cnc3ccc(F)cc23)c1` [Compound 134], for which the figures for the Ki on rat mGluR1 and on rat mGluR5 were above 500 nM and 200 to 500 nM, respectively.

For `N#Cc1cccc(S(=O)(=O)c2cnc3ccc(F)cc3c2-c2cccc(Cl)c2)c1` [Compound 135], the Ki was 200 to 500 nM on rat mGluR1 and below 200 nM at rat mGluR5.

As to `N#Cc1cccc(S(=O)(=O)c2cnc3ccc(F)cc3c2-c2ccc(Cl)cc2)c1` [Compound 136], the Ki at rat mGluR1 was 200 to 500 nM; at rat mGluR5, below 200 nM.

On to `COc1ccc(-c2c(S(=O)(=O)c3cccc(C#N)c3)cnc3ccc(F)cc23)cc1` [Compound 137], for which the Ki was above 500 nM on rat mGluR1 and below 200 nM at rat mGluR5.

In the case of `Cc1ccc(S(=O)(=O)c2cnc3ccc(F)cc3c2-c2cccc(Cl)c2)cc1Cl` [Compound 138], the Ki was above 500 nM at rat mGluR1 and below 200 nM on rat mGluR5.

As for `Cc1ccc(S(=O)(=O)c2cnc3ccc(F)cc3c2-c2ccc(Cl)cc2)cc1Cl` [Compound 139], the figures for the Ki at rat mGluR1 and at rat mGluR5 were above 500 nM and below 200 nM, respectively.

Take `Cc1ccc(S(=O)(=O)c2cnc3ccc(F)cc3c2-c2cccc(F)c2)cc1Cl` [Compound 140]: the figures for the Ki at rat mGluR1 and at rat mGluR5 were above 500 nM and below 200 nM, respectively.

As to `COc1cccc(-c2c(S(=O)(=O)c3ccc(C)c(Cl)c3)cnc3ccc(F)cc23)c1` [Compound 141], the Ki on rat mGluR1 is above 500 nM; on rat mGluR5, below 200 nM.

Take `Cc1ccc(S(=O)(=O)c2cnc3ccc(F)cc3c2-c2ccc(F)cc2)cc1Cl` [Compound 142]: the results for the Ki at rat mGluR1 and on rat mGluR5 were above 500 nM and below 200 nM, respectively.

For the compound `COc1ccc(S(=O)(=O)c2cnc3ccc(F)cc3c2-c2ccc(F)cc2)cc1` [Compound 143], the Ki is above 500 nM on rat mGluR1 and 200 to 500 nM at rat mGluR5.
